Entries after “also recorded” stand apart in the source; their conditions may differ.
Experiments:
[1] = system: CMS1 (HCT116, RKO, LoVo, SNU-C2A, LIM2405, WiDr) and CMS2 (CaCo2, HT55, CL14, SW403, GP2d, HCA24) cell lines; test: Drug response curves (viability, AUC) in a panel of CMS1 and CMS2 cell lines; assay type: cell-based; conditions: 72 h; 6 CMS1 and 6 CMS2 cell lines
Excerpt: The present invention will now be further described in the following examples with reference to the accompanying figures and sequences, nevertheless, without being limited thereto. For the purposes of the present invention, all references as cited herein are incorporated by reference in their entireties. In the Figures: • Figure 1: Classification of colorectal cancer cell lines into consensus molecular subtypes (CMS). • (A) Workflow of data collection and subtype classification. Expression data of CRC cell lines were retrieved from six publicly available datasets. For each dataset, the CMS of every cancer cell line was separately identified using the R package 'CMSclassifier'. The CMS that was determined by the majority of datasets was then considered as the consensus. Finally, genomic data from CCLE and COSMIC were used to analyse CMS specific distributions of mutations and copy number alterations. • (B) Distribution of CRC cell lines to different CMS. […] Drug response data from a large screen performed by Iorio et al. was combined with the CMS classification of CRC cell lines to identify differential drug effects between CMS1 and CMS2 cell lines. […] Cell lines were treated with increasing drug concentrations for 72 h. […] The CMS1 cell lines RKO and HCT116 and the CMS2 cell lines HT55 and CaCo2 were treated with increasing concentrations of YM155. Induction of apoptosis was measured by FACS after staining with APC Annexin V and 7-AAD. […] Data are shown as mean value ± s.e.m. of 3-4 independent replicates. Cell lysates were additionally analyzed by PARP and CASP8 immunoblot. β-actin serves as a loading control. […] CMS1 and 2 cell lines were treated with increasing concentrations of the Bcl2 inhibitor navitoclax for 72 h. […] The CMS1 cells lines RKO and HCT116 were treated with different concentrations of YM155 for 48 h and the expression of survivin was measured by qPCR. […] (E) HCT116, RKO, HT55 and CaCo2 cells were treated with 10 nM of YM155 for 24 h, after which global expression was determined by microarray analysis. […]

[2] = system: PARP and CASP3; test: Immunoblot of PARP and caspase cleavage; assay type: cell-based; conditions: cell lysates; CMS1 versus CMS2 cell lines
[3] = system: solid tumours; conditions: phase I and II trials, solid non-CRC tumours; cited from earlier work
[4] = system: survivin; test: Survivin transcript (qPCR) and protein levels after treatment; assay type: cell-based; conditions: four CRC cell lines
Excerpt: (§1) The present invention will now be further described in the following examples with reference to the accompanying figures and sequences, nevertheless, without being limited thereto. For the purposes of the present invention, all references as cited herein are incorporated by reference in their entireties. In the Figures: • Figure 1: Classification of colorectal cancer cell lines into consensus molecular subtypes (CMS). • (A) Workflow of data collection and subtype classification. Expression data of CRC cell lines were retrieved from six publicly available datasets. For each dataset, the CMS of every cancer cell line was separately identified using the R package 'CMSclassifier'. The CMS that was determined by the majority of datasets was then considered as the consensus. […] Heatmap showing the viability effect of YM155 on individual CMS1 and CMS2 cell lines within the screen (blue indicates a low viability as measured by the AUC). • (C-D) Validation of YM155 as a selective drug in CMS1 colorectal cancer. […] Induction of apoptosis was measured by FACS after staining with APC Annexin V and 7-AAD. […] Cell lysates were additionally analyzed by PARP and CASP8 immunoblot. β-actin serves as a loading control. […] The CMS1 cells lines RKO and HCT116 were treated with different concentrations of YM155 for 48 h and the expression of survivin was measured by qPCR. […]

[5] = system: HCT116 and HT55; test: Single knockout validation (SLC35F2, CCDC22, WASHC4, SNX17): drug-induced apoptosis by FACS; assay type: cell-based
Excerpt: as §1

[6] = system: CMS1 and CMS2 CRC cell lines; test: Analysis of public drug screen data (Iorio et al.): viability effect (AUC) in CMS-classified CRC cell lines; assay type: cell-based; conditions: 8 CMS1 and 16 CMS2 CRC cell lines, 256 drugs, 2016
Excerpt: The present invention will now be further described in the following examples with reference to the accompanying figures and sequences, nevertheless, without being limited thereto. For the purposes of the present invention, all references as cited herein are incorporated by reference in their entireties. In the Figures: • Figure 1: Classification of colorectal cancer cell lines into consensus molecular subtypes (CMS). • (A) Workflow of data collection and subtype classification. Expression data of CRC cell lines were retrieved from six publicly available datasets. For each dataset, the CMS of every cancer cell line was separately identified using the R package 'CMSclassifier'. The CMS that was determined by the majority of datasets was then considered as the consensus. […] Induction of apoptosis was measured by FACS after staining with APC Annexin V and 7-AAD. […] Cell lysates were additionally analyzed by PARP and CASP8 immunoblot. β-actin serves as a loading control. […] The CMS1 cells lines RKO and HCT116 were treated with different concentrations of YM155 for 48 h and the expression of survivin was measured by qPCR. […] (E) HCT116, RKO, HT55 and CaCo2 cells were treated with 10 nM of YM155 for 24 h, after which global expression was determined by microarray analysis. […]

[7] = system: CMS1 cell lines HCT116 and RKO; test: Long-term proliferation assay; assay type: cell-based; conditions: CMS1 (HCT116, RKO) versus CMS2
[8] = system: HCT116, RKO, HT55 and CaCo2 cells; test: Global expression analysis by microarray after treatment; assay type: cell-based; conditions: 10 nM, 24 h; CMS1 versus CMS2 cell lines
Excerpt: as §1

[9] = system: CMS1 cell lines RKO and HCT116 and the CMS2 cell lines HT55 and CaCo2; test: Apoptosis by flow cytometry (APC Annexin V and 7-AAD); assay type: cell-based; conditions: increasing concentrations; CMS1 (RKO, HCT116) versus CMS2 (HT55, CaCo2)
Excerpt: as §1

| Compound | sensitivity of CMS1 versus CMS2 cell lines (dose response curves, comparison of AUCs) [1] | cleavage of PARP and CASP3 [2] | clinical benefit / efficacy [3] | tolerability / toxicity profile [3] | protein levels of survivin [4] | expression of survivin (transcript) ([4]; qPCR, 48 h) | effect of candidate gene knockout on drug-induced apoptosis ([5]; HCT116 (CMS1)) | effect of candidate gene knockout on drug sensitivity ([5]; HT55 (CMS2)) | differential effect between CMS1 and 2 (viability effect, AUC) [6] | higher sensitivity of CMS1 cell lines [7] | global expression [8] | induction of apoptosis (percentage of apoptotic cells) [9] |
| --- | --- | --- | --- | --- | --- | --- | --- | --- | --- | --- | --- | --- |
| O=c1[nH]cc(F)c(=O)[nH]1 [5-fluorouracil] | do not show a different viability effect in CMS1 and CMS2 colorectal cancer; also recorded: no difference in response rates could be detected between CMS1 and CMS2 |  |  |  |  |  |  |  |  |  |  |  |
| COCCn1c2c([n+](Cc3cnccn3)c1C)C(=O)c1ccccc1C2=O [YM155, 11-(2-methoxyethyl)-2-methyl-4,9-dioxo-3-(pyrazin-2-ylmethyl)-4,9-dihydro-1H-naphtho(2,3-d)imidazolium bromide] | significantly higher vulnerability of CMS1 colorectal cancer; also recorded: significantly more sensitive | detected at low concentrations in CMS1 but not CMS2 cell lines; also recorded: occurred at lower concentrations in RKO compared to CaCo2 | efficacy results are mixed; also recorded: failed to show clinical benefit; also recorded: no clinical benefit was observed | safe and good tolerability and favourable toxicity profile | protein levels of survivin are only reduced at high concentrations | expression of survivin is only repressed in RKO cells | All candidate genes lead to resistance to YM155 induced apoptosis at different concentrations in HCT116; also recorded: resistance against YM155 induced apoptosis in HCT116 | only SLC35F2 knockout mediates resistance in HT55; also recorded: did not change YM155 sensitivity in HT55 | selective effect on CMS1 cancer; also recorded: strongest differential effect between CMS1 and 2 | approximately 100 fold | global expression was dynamically reshaped upon treatment in CMS1 cell lines | Apoptosis can be measured at lower concentrations in CMS1 cell lines; also recorded: apoptosis was induced in CMS1 cell lines at significantly lower concentrations |
| CC1(C)CCC(c2ccc(Cl)cc2)=C(CN2CCN(c3ccc(C(=O)NS(=O)(=O)c4ccc(N[C@H](CCN5CCOCC5)CSc5ccccc5)c(S(=O)(=O)C(F)(F)F)c4)cc3)CC2)C1 [navitoclax] | does not show a significant difference between CMS1 and CMS2; also recorded: no difference in navitoclax sensitivity between CMS1 and CMS2 cell lines |  |  |  |  |  |  |  |  |  |  |  |

Source: EP3590935A1, “FUSED IMIDAZOLIUM DERIVATIVES FOR USE IN THE TREATMENT OF COLORECTAL CANCER” (Deutsches Krebsforschungszentrum, Stiftung des öffentlichen …, priority 2018, dated 2020)
